Reference: patent US6737383B1, “Herbicidal oxadiazolidines” (priority 1999, dated 2004)

Columns and labels:
wild oat [1] = assay: Test B pre/postemergence wild oat; type: in vivo, Avena fatua
Procedure, shortened: (§1)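 Response is a visual 0-to-10 score relative to untreated plants, where 0 means no effect and 10 means complete control, taken twelve to sixteen days after application. Treatments went onto soil at planting and onto foliage of 1- to 4-leaf plants, using a surfactant-containing non-phytotoxic solvent.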

wild oat [2] = assay: Test E wild oat; type: in vivo, Avena fatua; conditions: Preemergence
wheat = assay: Test B pre/postemergence wheat; type: in vivo, Triticum aestivum
Procedure, shortened: as §1

green foxtail = assay: Test E green foxtail; type: in vivo, Setaria viridis; conditions: Preemergence
winter barley = assay: Test E winter barley; type: in vivo, Hordeum vulgare; conditions: Preemergence
winter wheat [3] = assay: Test E winter wheat; type: in vivo, Triticum aestivum; conditions: Postemergence, 0 to 100 scale
Procedure, shortened: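 Compounds formulated in non-phytotoxic solvent mixture with surfactant; for postemergence, sprayed on plants at 1- to 4-leaf stage grown in 60:40 sandy loam/greenhouse potting mix. Kept in greenhouse ~21 to 28 days, then visually rated against untreated controls.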

winter wheat [4] = assay: Test E winter wheat; type: in vivo, Triticum aestivum; conditions: Preemergence
Italian ryegrass = assay: Test E Italian ryegrass; type: in vivo, Lolium multiflorum; conditions: Preemergence
crabgrass = assay: Test B pre/postemergence crabgrass; type: in vivo, Digitaria sanguinalis
Procedure, shortened: as §1

blackgrass = assay: Test E blackgrass; type: in vivo, Alopecurus myosuroides; conditions: Preemergence
rice = assay: Test B flood test rice; type: in vivo, Oryza sativa
Procedure, shortened: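 Read-out is a visual response score from 0 (no effect) to 10 (complete control), assigned by comparison with untreated controls. Treatment was applied at the 2-leaf stage, and plants stayed in the greenhouse for twelve to sixteen days before scoring.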

[5] = Postemergence, Rate 62 g/ha, scale 0 to 10, 0 is no effect, 10 is complete control
[6] = Postemergence, Rate 125 g/ha, scale of 0 to 10 where 0 is no effect and 10 is complete control
[7] = Preemergence, Rate 62 g/ha, scale 0 to 10 (0 no effect, 10 complete control)
[8] = Preemergence, Rate 125 g/ha, 0 is no effect, 10 is complete control
[9] = Preemergence, Rate 250 g/ha, scale of 0 to 10 where 0 is no effect and 10 is complete control
[10] = Preemergence, Rate 500 g/ha, scale 0 (no effect) to 10 (complete control)
[11] = Rate 250 g/ha, Postemergence, scale 0 to 10, 0 is no effect, 10 is complete control
[12] = Rate 500 g/ha, Postemergence, scale 0 to 10, 0 no effect, 10 complete control
[13] = Rate 31 g/ha, 0 to 100 scale, 0 no effect, 100 complete control
[14] = Rate 62 g/ha, 0 to 100 scale, 0 no effect, 100 complete control
[15] = Postemergence, Rate 250 g/ha, scale 0 to 10, 0 no effect, 10 complete control
[16] = Preemergence, Rate 125 g/ha, scale 0 to 10 (0 no effect, 10 complete control)
[17] = Preemergence, Rate 62 g/ha, scale of 0 to 10 where 0 is no effect and 10 is complete control
[18] = Preemergence, Rate 250 g/ha, scale 0 to 10, 0 is no effect, 10 is complete control
[19] = Preemergence, Rate 500 g/ha, scale of 0 to 10 where 0 is no effect and 10 is complete control
[20] = Rate 62 g/ha, Postemergence, scale of 0 to 10 where 0 is no effect and 10 is complete control
[21] = Rate 125 g/ha, Postemergence, scale 0 to 10
[22] = Rate 500 g/ha, 0 to 100 scale where 0 is no effect and 100 is complete control
[23] = Rate 125 g/ha, Postemergence, scale 0 to 10, 0 no effect, 10 complete control
[24] = Preemergence, Rate 62 g/ha, scale 0 to 10, 0 is no effect, 10 is complete control

CCCn1c(=O)on(C(=O)N(c2ccc(F)cc2)C(C)C)c1=O [Compound 91]
9: Wild oats plant response rating (0 to 10 scale) (wild oat [1]; [8]) | Crabgrass plant response rating (crabgrass; [6]) | Crabgrass plant response rating (crabgrass; [15]) | Crabgrass plant response rating (crabgrass; [12])
40: Plant response rating, Wild oat (wild oat [2]; [13]) | Plant response rating, Barley (winter) (winter barley; [14]) | Plant response rating, Wheat (winter) (winter wheat [4]; [14]) | Plant response rating, I. Ryegrass (Italian ryegrass; [13]) | Plant response rating, I. Ryegrass (Italian ryegrass; [14])
80: Plant response rating, Green foxtail (green foxtail; [14])
3: Plant response rating, Wild oats (wild oat [1]; [11]) | Wheat plant response rating (wheat; [7])
4: Wheat plant response rating (0 to 10 scale) (wheat; [8]) | Plant response rating, Wheat (wheat; [9]) | Plant response rating, Wheat (wheat; [11])
5: Wild oats plant response rating (wild oat [1]; [12]) | Crabgrass plant response rating (crabgrass; [5])
2: Wild oats plant response rating (wild oat [1]; [6])
10: Plant response rating, Wild oats (wild oat [1]; [9]) | Wild oats plant response rating (wild oat [1]; [10]) | Plant response rating, Wheat (winter) (winter wheat [3]; Rate 62 g/ha) | Plant response rating, Wheat (winter) (winter wheat [4]; [13]) | Crabgrass plant response rating (crabgrass; [7]) | Plant response rating, Crabgrass (crabgrass; [16]) | Plant response rating, Crabgrass (crabgrass; [9]) | Crabgrass plant response rating (crabgrass; [10])
60: Plant response rating, Wild oat (wild oat [2]; [14]) | Plant response rating, Green foxtail (green foxtail; [13]) | Plant response rating, Blackgrass (blackgrass; [14])
0: Plant response rating, Wheat (winter) (winter wheat [3]; Rate 31 g/ha, 0 no effect, 100 complete control)
20: Plant response rating, Barley (winter) (winter barley; [13]) | Plant response rating, Blackgrass (blackgrass; [13])
6: Wheat plant response rating (wheat; [10]) | Wheat plant response rating (wheat; [12])
1: Wild oats plant response rating (wild oat [1]; [5]) | Wheat plant response rating (wheat; [5]) | Wheat plant response rating (wheat; [6])
8: Wild oats plant response rating (wild oat [1]; [7])

CCc1cccc(C)c1-n1c(=O)on(C(=O)N(c2ccc(F)cc2)C(C)C)c1=O [Compound 201]
5: Plant response rating, Wild oats (wild oat [1]; [19]) | Crabgrass plant response rating (0 to 10 scale) (crabgrass; [8])
20: Plant response rating, Barley (winter) (winter barley; [22])
60: Plant response rating, I. Ryegrass (Italian ryegrass; [22])
65: Plant response rating, Green foxtail (green foxtail; [22])
9: Crabgrass plant response rating (crabgrass; [18]) | Plant response rating, Crabgrass (crabgrass; [19])
4: Crabgrass plant response rating (crabgrass; [10])
50: Wild oat plant response rating (0 to 100 scale) (wild oat [2]; Rate 250 g/ha) | Green foxtail plant response rating (0 to 100 scale) (green foxtail; Rate 250 g/ha) | I. Ryegrass plant response rating (0 to 100 scale) (Italian ryegrass; Rate 250 g/ha) | Plant response rating, Blackgrass (blackgrass; [22])
2: Plant response rating, Wheat (wheat; [19])
3: Wild oats plant response rating (wild oat [1]; [18])
0: Wild oats plant response rating (wild oat [1]; [17]) | Wild oats plant response rating (wild oat [1]; [10]) | Wild oats plant response rating (wild oat [1]; [20]) | Wild oats plant response rating (wild oat [1]; [21]) | Plant response rating (0 to 10; 0 is no effect, 10 is complete control), Wild oats (wild oat [1]; Rate 250 g/ha, Postemergence) | Wheat plant response rating (wheat; [17]) | Wheat plant response rating (wheat; [18]) | Wheat plant response rating (wheat; [10]) | Wheat plant response rating (wheat; [20]) | Wheat plant response rating (wheat; [21]) | Plant response rating (0 to 10; 0 is no effect, 10 is complete control), Wheat (wheat; Rate 250 g/ha, Postemergence) | Barley (winter) plant response rating (0 to 100 scale) (winter barley; Rate 250 g/ha) | Rice plant response rating (rice; Rate 62 g/ha, headed Pre-emergence (flood test species), scale 0 to 10 (0 no effect, 10 complete control)) | Rice plant response rating (rice; Rate 125 g/ha, Pre-emergence, flood test species, scale 0 to 10 where 0 is no effect and 10 is complete control) | Rice plant response rating (rice; Rate 250 g/ha, Pre-emergence, flood-test species, scale 0 to 10, 0 is no effect, 10 is complete control) | Plant response rating, Rice (rice; Rate 500 g/ha, headed Pre-emergence (flood test species), scale 0 to 10 (0 no effect, 10 complete control)) | Crabgrass plant response rating (crabgrass; [17]) | Crabgrass plant response rating (crabgrass; [20]) | Crabgrass plant response rating (crabgrass; [21]) | Plant response rating (0 to 10; 0 is no effect, 10 is complete control), Crabgrass (crabgrass; Rate 250 g/ha, Postemergence) | Crabgrass plant response rating (crabgrass; Rate 500 g/ha, Postemergence, scale 0 to 10)
30: Blackgrass plant response rating (0 to 100 scale) (blackgrass; Rate 250 g/ha)
40: Plant response rating, Wild oat (wild oat [2]; [22]) | Wheat (winter) plant response rating (0 to 100 scale) (winter wheat [4]; Rate 250 g/ha) | Plant response rating, Wheat (winter) (winter wheat [4]; [22])

Cc1ccccc1-n1c(=O)on(C(=O)N(c2ccc([N+](=O)[O-])cc2)C(C)C)c1=O [Compound 44]
2: Crabgrass plant response rating (crabgrass; [10])
0: Wild oats plant response rating (wild oat [1]; [5]) | Wild oats plant response rating (wild oat [1]; [15]) | Plant response rating, Wild oats (wild oat [1]; [16]) | Plant response rating, Wild oats (wild oat [1]; [9]) | Wild oats plant response rating (wild oat [1]; [10]) | Wild oats plant response rating (wild oat [1]; [23]) | Wheat plant response rating (wheat; [5]) | Wheat plant response rating (wheat; [15]) | Plant response rating, Wheat (wheat; [24]) | Plant response rating, Wheat (wheat; [16]) | Plant response rating, Wheat (wheat; [9]) | Wheat plant response rating (wheat; [10]) | Wheat plant response rating (wheat; [23]) | Rice plant response rating (rice; [5]) | Rice plant response rating (rice; Rate 125 g/ha, Postemergence section (flood test species), scale 0 to 10, 0 no effect, 10 complete control) | Rice plant response rating (rice; Rate 500 g/ha, Postemergence section of Table B, 0 to 10 scale (0 no effect, 10 complete control)) | Rice plant response rating (rice; flood test, listed under Postemergence, Rate 250 g/ha, scale 0 to 10, 0 no effect, 10 complete control) | Crabgrass plant response rating (crabgrass; [5]) | Crabgrass plant response rating (crabgrass; [15]) | Plant response rating, Crabgrass (crabgrass; [24]) | Plant response rating, Crabgrass (crabgrass; [16]) | Plant response rating, Crabgrass (crabgrass; [9]) | Crabgrass plant response rating (crabgrass; [23]) | Crabgrass plant response rating (crabgrass; Rate 500 g/ha, Postemergence, 0 to 10 scale (0 no effect, 10 complete control))
